Measurements: PMC11635519, “A High-Throughput Method for Screening Peptide Activators of G-Protein-Coupled Receptors” (ACS Omega, 2024)
Entries after “also recorded” stand apart in the source; their conditions may differ. Where a SMILES comes first, the peptide text is derived from it.

Key:
[1] = Circular dichroism secondary structure determination; details: acetonitrile:PBS (1:2), 20 μM peptide, 0.1 cm cuvette, 10 accumulations; for Others (secondary structure content) / α-helix content / β-sheet content: Table S2, estimated by BeStSel from CD; for α-helical structure content: circular dichroism
Procedure: We next performed circular dichroism (CD) analysis of the peptides in solution to determine the peptides’ secondary structure.
Peptide secondary structure determination was carried out using a Jasco J-720 spectropolarimeter (Table S2). Lyophilized peptide powders were dissolved in acetonitrile:PBS (1:2), and CD spectra were read immediately. […] Samples were read using a 0.1 cm cuvette path length with 10 accumulations per run and 50 nm/min scanning speed. All spectra were background subtracted.

hGLP1R = molecular target: T1, hGLP1R (Homo sapiens, UniProt P43220); experiment: HTRF cAMP assay in GLP-1R-expressing HEK293 cells; type: cell-based; details: at higher concentrations, HEK293 stably expressing GLP-1R, 4 h at 37 °C
T1 construct: expressed in transfected cells
Procedure: cAMP accumulation was measured using a HTRF cAMP-Gs Dynamic kit (Cisbio Bioassays, 62AM4PEB) according to the manufacturer’s instructions. Briefly, HEK293 cells expressing hGLP1R were trypsinized from subconfluent culture and seeded in a 96-well low-volume plate at a density of 2000 cells per well. […] After 4 h of incubation at 37 °C, cAMP d2 reagent and cAMP Eu-Cryptate antibodies were added to each well. After incubation at room temperature for 30 min in the dark, the plate was read using a Synergy 2 plate reader (BioTek) with excitation at 330 nm and emission at 620 and 665 nm. Data were used to calculate the EC50 value by fitting it to a nonlinear sigmoidal curve using GraphPad Prism 8.

GLP-1R [2] = experiment: cAMP assay (TR-FRET) for validating GLP-1R activating peptides from screening; type: cell-based; details: cells stably expressing GLP-1R and CRE, transfected with peptide-expressing construct, 24 h + 24 h; TR-FRET cAMP-Gs Dynamic kit
Text: We next screened the GPI-AP-peptide library using FACS to discover novel GLP-1R activators. FACS is a widely used flow cytometric technique that isolates specific cell populations from mixtures of different cells. Briefly, when a potential peptide activator stimulates GLP-1R, there is an intracellular boost of cAMP levels. Subsequently, cAMP activates CREB, which binds to CRE and triggers transcription of the GFP/luciferase reporter gene. […] We chose the top three activating peptides found throughout the screening for further validation testing (PepA3, Pep1, and Pep2).
Figure 3 Discovery of novel agonists of the GLP-1R using our screening platform. (A) Fluorescence-activated cell analysis and sorting of HEK293 cells transfected with the GLP-1R. […] (B) Confocal microscopy of HEK293 cells transfected with the GLP-1R treated with different peptides. […] The increase in the cyclic AMP concentration was quantified to evaluate the peptides’ activities.
The stable cell lines were prepared by the infection of HEK293T cells with the pLJM1 vector with GLP-1R and CRE. The cells were selected with the hygromycin antibiotic. […] The culture medium was changed, and cells were grown for 24 h. The cAMP cell content was estimated using a homogeneous time-resolved fluorescence resonance energy transfer (TR-FRET) immunoassay using a cAMP-Gs Dynamic kit (PerkinElmer) following manufacturer’s protocol.

GLP-1R [3] = experiment: FACS analysis of GFP-positive cells (CRE-GFP reporter), GLP-1R-expressing HEK293; type: cell-based; details: HEK293 cells transfected with GLP-1R
Procedure: Cells were harvested by trypsin treatment and centrifuged at 500g for 5 min. The pellet was resuspended in ice-cold PBS and centrifuged again. The pellet was then resuspended at a concentration of 4 × 10^6 cells/mL in the PBS sorting buffer containing 100 Kunitz DNase I/mL, 10 μg/mL propidium iodide (Sigma), and 2% FBS. The sorting solution was also supplemented with either 10 μM forskolin, 100 μM 5,6-dichlorobenzimidazole riboside (DRB, Sigma), 10 μM forskolin (Sigma), and 100 μM DRB or DMSO, as a control. The cells were then sent through a 40 μm filter to remove large clumps and loaded into either a FACScan Flow Cytometer (BD Bioscience) for cell analysis or a FACSVantage SE cell sorter (BD Bioscience) for cell sorting. The cells with positive propidium iodide staining, i.e., the dead cells, were first eliminated from the analysis or sorting pool. For cell sorting, the desired population, either the EGFP brightest or least bright ones according to the purpose of experiments (see Results), was sorted into either 15 mL conical tubes or 96-well plates, which contained complete DMEM culture media.

CCR2-mCherry = experiment: FRET colocalization of MCP1-GFP with CCR2-mCherry at the cell surface; type: cell-based; details: MCP1-GFP and CCR2-mCherry; transient coexpression in HEK293 cells; FRET assays
Procedure: To validate our screening platform, we chose the interaction between the chemokine MCP1 peptide and C–C chemokine receptor 2 (CCR2).[10],[11] We designed a structure that encodes a fusion protein to display the MCP1 peptide on the cell surface. The Ly6/neurotoxin (LYNX1) signal and GPI-AP sequences were present in this fusion protein’s N- and C-terminal regions, respectively. A Flag tag or GFP sequence was added upstream of the GPI-AP sequence. We also investigated the effect of various linkers between MCP1 and FLAG, as well as the FLAG and GPI-AP sequences (Figure 2A). All of the different MCP1-GFP constructions and CCR2 receptor fused with the mCherry fluorescent protein (CCR2-mCherry) were cloned into the pLJM1 nGFP lentiviral vector to evaluate their expression in human embryonic kidney 293 (HEK293) cells.
Figure 2 Validation of the screening platform using the MCP1 peptide. (A) Genetic construction that encodes the fusion protein used to display library peptides on the cell surface. (B) Cell surface localization of the MCP1-GFP peptide and CCR2-mCherry receptor. MCP1-GFP peptide and CCR2-mCherry were localized at the cell surface when expressed separately. […]
MCP1-GFP and CCR2-mCherry were localized at the cell surface when expressed separately (Figure 2B). […] We then evaluated the activity of the different MCP1-GFP constructions using a CRE-luciferase reporter assay. […]

CCR2 = experiment: CRE-luciferase reporter assay of MCP1 fusion constructs (platform validation); type: cell-based; details: HEK293T stably expressing CCR2 and Gaussia luciferase reporter, luciferase induced by 10 μM forskolin
Text: Figure 2 Validation of the screening platform using the MCP1 peptide. (A) Genetic construction that encodes the fusion protein used to display library peptides on the cell surface. (B) Cell surface localization of the MCP1-GFP peptide and CCR2-mCherry receptor. MCP1-GFP peptide and CCR2-mCherry were localized at the cell surface when expressed separately. (C) MCP1-GFP peptide colocalized with CCR2-mCherry at the cell surface and distinct subcellular sites upon transient coexpression in HEK293T cells. (D) Evaluating the activity of different fusion proteins of the MCP1 peptide using a CRE-luciferase reporter assay. […] The activation of the different peptide variants was recorded through the inhibition of the luciferase expression induced by 10 μM forskolin.
MCP1-GFP and CCR2-mCherry were localized at the cell surface when expressed separately (Figure 2B). […] We then evaluated the activity of the different MCP1-GFP constructions using a CRE-luciferase reporter assay. As a negative control, we used a construction where the MCP1 peptide is not fused to the signal or GPI-AP sequences.
HEK293T cells stably expressing CCR2 and the reporter Gaussia Luciferase construct were trypsinized from subconfluent culture and seeded in a 96-well plate at a density of 5000 cells per well. […] Immediately after adding the reagent, samples were read using a luminometer with a 480 nm filter.

[4] = molecular target: glucagon-like peptide-1 receptor (human) (UniProt P43220)
glucagon-like peptide-1 receptor (human), sequence (P43220 24-463): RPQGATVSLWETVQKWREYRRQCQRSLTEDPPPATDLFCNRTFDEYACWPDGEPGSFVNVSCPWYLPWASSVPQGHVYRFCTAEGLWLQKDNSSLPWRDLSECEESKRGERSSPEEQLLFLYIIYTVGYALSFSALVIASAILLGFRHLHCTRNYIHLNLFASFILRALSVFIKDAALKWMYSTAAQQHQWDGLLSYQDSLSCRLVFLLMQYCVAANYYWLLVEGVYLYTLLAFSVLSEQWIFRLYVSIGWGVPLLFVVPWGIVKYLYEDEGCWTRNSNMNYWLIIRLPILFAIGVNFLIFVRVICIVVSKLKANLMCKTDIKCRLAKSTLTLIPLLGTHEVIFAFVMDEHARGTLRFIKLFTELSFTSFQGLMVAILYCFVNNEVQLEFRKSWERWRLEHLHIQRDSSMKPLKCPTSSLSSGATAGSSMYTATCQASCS

T1 sequence (P43220 24-463): as above

Molecule	Others (secondary structure content) [1]	α-helix content [1]	β-sheet content [1]	α-helical structure content [1]	efficacy for GLP-1R activation relative to GLP-1 (hGLP1R)	stimulation of GLP-1R-expressing cells and intracellular cAMP increase (GLP-1R [2])	other results
CC[C@H](C)[C@H](N)C(=O)N[C@@H](CS)C(=O)N[C@@H](CCC(=O)O)C(=O)NCC(=O)N[C@@H](CC(C)C)C(=O)N[C@@H](CCCNC(=N)N)C(=O)N[C@@H](CCC(=O)O)C(=O)N[C@H](C(=O)N[C@@H](CS)C(=O)N[C@@H](CCC(N)=O)C(=O)N1CCC[C@H]1C(=O)N[C@@H](C)C(=O)N[C@@H](Cc1ccccc1)C(=O)N[C@@H](CC(=O)O)C(=O)N[C@@H](C)C(=O)N[C@H](C(=O)N[C@@H](CC(=O)O)C(=O)N[C@@H](CCSC)C(=O)N[C@@H](C)C(=O)N[C@@H](Cc1c[nH]c2ccccc12)C(=O)N1CCC[C@H]1C(=O)N[C@@H](Cc1ccc(O)cc1)C(=O)N[C@@H](Cc1ccccc1)C(=O)N[C@@H](CC(C)C)C(=O)N[C@@H](CC(=O)O)C(=O)N[C@@H](CS)C(=O)N[C@@H](Cc1c[nH]cn1)C(=O)N[C@@H](CCCNC(=N)N)C(=O)N[C@@H](Cc1ccc(O)cc1)C(=O)N[C@@H](Cc1ccccc1)C(=O)N[C@H](C(=O)N[C@@H](CCCNC(=N)N)C(=O)N[C@@H](CCC(=O)O)C(=O)O)[C@@H](C)O)[C@@H](C)CC)C(C)C [PepA2] (H-ICEGLREVCQPAFDAIDMAWPYFLDCHRYFTRE-OH; N-terminus and C-terminus assumed)	56.5%	30.1%	13.3%	30.1–46.1%	able to stimulate GLP-1R activation to a level comparable to that of GLP-1	–	–
CC[C@H](C)[C@H](NC(=O)[C@H](C)NC(=O)[C@H](CC(=O)O)NC(=O)[C@H](Cc1ccccc1)NC(=O)[C@H](C)NC(=O)[C@@H]1CCCN1C(=O)[C@H](CCC(N)=O)NC(=O)[C@H](CS)NC(=O)[C@@H](NC(=O)[C@H](CCC(=O)O)NC(=O)[C@H](CCCNC(=N)N)NC(=O)[C@H](CC(C)C)NC(=O)CNC(=O)[C@H](CCC(=O)O)NC(=O)[C@@H](N)CS)C(C)C)C(=O)N[C@@H](CC(=O)O)C(=O)N[C@@H](CCSC)C(=O)N[C@@H](C)C(=O)N[C@@H](Cc1c[nH]c2ccccc12)C(=O)N1CCC[C@H]1C(=O)N[C@@H](Cc1ccc(O)cc1)C(=O)N[C@@H](Cc1ccccc1)C(=O)N[C@@H](CC(C)C)C(=O)N[C@@H](CC(=O)O)C(=O)N[C@@H](CS)C(=O)N[C@@H](Cc1c[nH]cn1)C(=O)N[C@@H](CCCNC(=N)N)C(=O)N[C@@H](Cc1ccc(O)cc1)C(=O)N[C@@H](Cc1ccccc1)C(=O)N[C@H](C(=O)N[C@@H](CCCNC(=N)N)C(=O)N[C@@H](CCC(=O)O)C(=O)O)[C@@H](C)O [PepA3] (H-CEGLREVCQPAFDAIDMAWPYFLDCHRYFTRE-OH; N-terminus and C-terminus assumed)	46.7%	42.9%	10.4%	30.1–46.1%	able to stimulate GLP-1R activation to a level comparable to that of GLP-1	stimulated the GLP-1R-expressing HEK293 cells and increased the cAMP intracellular levels	–
CC[C@H](C)[C@H](NC(=O)[C@H](C)NC(=O)[C@H](CC(=O)O)NC(=O)[C@H](Cc1ccccc1)NC(=O)[C@H](C)NC(=O)[C@@H]1CCCN1C(=O)[C@H](CCC(N)=O)NC(=O)[C@H](CS)NC(=O)[C@@H](NC(=O)[C@H](CCC(=O)O)NC(=O)[C@H](CCCNC(=N)N)NC(=O)[C@H](CC(C)C)NC(=O)CNC(=O)[C@H](CCC(=O)O)NC(=O)[C@H](CS)NC(=O)[C@@H](NC(=O)[C@@H](N)Cc1c[nH]cn1)[C@@H](C)CC)C(C)C)C(=O)N[C@@H](CC(=O)O)C(=O)N[C@@H](CCSC)C(=O)N[C@@H](C)C(=O)N[C@@H](Cc1c[nH]c2ccccc12)C(=O)N1CCC[C@H]1C(=O)N[C@@H](Cc1ccc(O)cc1)C(=O)N[C@@H](Cc1ccccc1)C(=O)N[C@@H](CC(C)C)C(=O)N[C@@H](CC(=O)O)C(=O)N[C@@H](CS)C(=O)N[C@@H](Cc1c[nH]cn1)C(=O)N[C@@H](CCCNC(=N)N)C(=O)N[C@@H](Cc1ccc(O)cc1)C(=O)N[C@@H](Cc1ccccc1)C(=O)N[C@H](C(=O)N[C@@H](CCCNC(=N)N)C(=O)N[C@@H](CCC(=O)O)C(=O)O)[C@@H](C)O [PepA] (H-HICEGLREVCQPAFDAIDMAWPYFLDCHRYFTRE-OH; N-terminus and C-terminus assumed)	45.4%	46.1%	8.5%	30.1–46.1%	able to stimulate GLP-1R activation to a level comparable to that of GLP-1	–	–
C=C[C@@]1(C)CC(=O)[C@]2(O)[C@@]3(C)[C@@H](O)CCC(C)(C)[C@@H]3[C@H](O)[C@H](OC(C)=O)[C@@]2(C)O1 [forskolin]	–	–	–	–	–	–	GFP-positive cells versus no treatment (GLP-1R [3]): more GFP-positive cells
ELAELVPRLFRVASKTHRDLLEVNLQNGILFV [Pep1]	–	–	–	–	–	Only PepA3 stimulated the GLP-1R-expressing HEK293 cells	–
MCP1: chemokine MCP1 peptide displayed on the cell surface as fusion with LYNX1 signal and GPI-AP sequences	–	–	–	–	–	–	colocalization with CCR2 at the cell surface (CCR2-mCherry): colocalization of MCP1 and CCR2 at the cell surface; activation of CCR2 receptor (inhibition of forskolin-induced luciferase expression) (CCR2; MCP1 fused to the signal sequence and GPI-AP (all constructions), 6 h after transfection): activated the receptor in all the constructions where the peptide was fused to the signal sequence and GPI-AP; also recorded: activated the CCR2 receptor in all the constructions where the peptide was fused to the signal and GPI-AP sequences; activation of CCR2 receptor (inhibition of forskolin-induced luciferase expression) (CCR2; negative control: MCP1 not fused to the signal or GPI-AP sequences): did not activate the CCR2 receptor when the peptide was not fused to the signal sequence and GPI-AP
SGLAGHSVFLVPGLAAHPGSHSDQPPGVPSRR [Pep2]	–	–	–	–	–	Only PepA3 stimulated the GLP-1R-expressing HEK293 cells	–
glucagon-like peptide-1 (ligand)	–	–	–	–	–	–	EC50 of the decrease of the FRET signal in the HTRF cAMP assay, GLP-1R expressing HEK293 cells [4]: 0.54 nM
